Results: ChEMBL document CHEMBL1944566, “Conjugation of cell-penetrating peptides leads to identification of anti-HIV peptides from matrix proteins” (Bioorg Med Chem, 2012)
Calls of active or inactive are those of the source. No cut-off for these calls is given here. Where a SMILES comes first, the peptide text is derived from it. The star is where a group is joined. Cam = NC(=O)C*

Assays:
[1] = tested on: Human immunodeficiency virus 1; assay: Antiviral activity against R5 tropic HIV1 NL(AD8) in PM1/CCR5 cells assessed as protection from virus-induced cytopathogenicity at 25 uM after 5 days by MTT assay; format: functional; conditions: Human immunodeficiency virus 1, NL(AD8), PM1/CCR5, 120 h
[2] = Cytotoxicity against human MT4 cells after 5 days by MTT assay; format: cell-based
[3] = tested on: Human immunodeficiency virus 1; assay: Antiviral activity against X4 tropic HIV1 NL4-3 in MT4 cells assessed as protection from virus-induced cytopathogenicity after 5 days by MTT assay; format: functional, organism-based; conditions: Human immunodeficiency virus 1, NL4-3, MT4, 120 h
[4] = tested on: Human immunodeficiency virus 1; assay: Antiviral activity against R5 tropic HIV1 JR-CSF in PM1/CCR5 cells assessed as protection from virus-induced cytopathogenicity measuring capsid p24 level after 5 days by ELISA; format: functional, cell-based; conditions: Human immunodeficiency virus 1, JRCSF ISOLATE, PM1/CCR5, 120 h
[5] = tested on: Human immunodeficiency virus 1; assay: Antiviral activity against R5 tropic HIV1 NL(AD8) in PM1/CCR5 cells assessed as protection from virus-induced cytopathogenicity at 50 uM after 5 days by MTT assay; format: functional; conditions: Human immunodeficiency virus 1, NL(AD8), PM1/CCR5, 120 h
[6] = tested on: Human immunodeficiency virus 1; assay: Antiviral activity against X4 tropic HIV1 NL4-3 in MT4 cells assessed as protection from virus-induced cytopathogenicity at 25 uM after 5 days by MTT assay; format: functional, organism-based
[7] = tested on: Human immunodeficiency virus 1; assay: Antiviral activity against X4 tropic HIV1 NL4-3 in MT4 cells assessed as protection from virus-induced cytopathogenicity at 12.5 uM after 5 days by MTT assay; format: functional, organism-based
[8] = tested on: Human immunodeficiency virus 1; assay: Antiviral activity against R5 tropic HIV1 NL(AD8) in PM1/CCR5 cells assessed as protection from virus-induced cytopathogenicity after 5 days by MTT assay; format: functional, organism-based; conditions: Human immunodeficiency virus 1, NL(AD8), PM1/CCR5, 120 h
[9] = Solubility in PBS buffer; format: physicochemical

| SMILES | CC50 at 120 h [2] | EC50 [3] | EC50 [4] | solubility [9] | further results |
| --- | --- | --- | --- | --- | --- |
| CC(=O)N[C@@H](CO)C(=O)N[C@@H](CCCCN)C(=O)N[C@@H](CCCCN)C(=O)N[C@@H](CCCCN)C(=O)N[C@@H](C)C(=O)N[C@@H](CCC(N)=O)C(=O)N[C@@H](CCC(N)=O)C(=O)N[C@@H](C)C(=O)N[C@@H](C)C(=O)N[C@@H](C)C(=O)N[C@@H](CC(=O)O)C(=O)N[C@H](C(=O)NCC(=O)N[C@@H](CC(N)=O)C(=O)N[C@@H](CC(N)=O)C(=O)NCC(=O)N[C@@H](CSCC(=O)N[C@@H](CCCNC(=N)N)C(=O)N[C@@H](CCCNC(=N)N)C(=O)N[C@@H](CCCNC(=N)N)C(=O)N[C@@H](CCCNC(=N)N)C(=O)N[C@@H](CCCNC(=N)N)C(=O)N[C@@H](CCCNC(=N)N)C(=O)N[C@@H](CCCNC(=N)N)C(=O)N[C@@H](CCCNC(=N)N)C(N)=O)C(N)=O)[C@@H](C)O | > 50 µM | 41 µM | 27 µM |  | inhibition at 25 µM [1]: 30% |
| CC(=O)N[C@@H](CC(C)C)C(=O)N[C@@H](CCC(=O)O)C(=O)N[C@@H](CCCNC(=N)N)C(=O)N[C@@H](Cc1ccccc1)C(=O)N[C@@H](C)C(=O)N[C@H](C(=O)N[C@@H](CC(N)=O)C(=O)N1CCC[C@H]1C(=O)NCC(=O)N[C@@H](CC(C)C)C(=O)N[C@@H](CC(C)C)C(=O)N[C@@H](CCC(=O)O)C(=O)N[C@H](C(=O)N[C@@H](CO)C(=O)N[C@@H](CCC(=O)O)C(=O)NCC(=O)N[C@@H](CSCC(=O)N[C@@H](CCCNC(=N)N)C(=O)N[C@@H](CCCNC(=N)N)C(=O)N[C@@H](CCCNC(=N)N)C(=O)N[C@@H](CCCNC(=N)N)C(=O)N[C@@H](CCCNC(=N)N)C(=O)N[C@@H](CCCNC(=N)N)C(=O)N[C@@H](CCCNC(=N)N)C(=O)N[C@@H](CCCNC(=N)N)C(N)=O)C(N)=O)[C@@H](C)O)C(C)C | > 50 µM | 40 µM | 42 µM |  | inhibition at 50 µM [5]: 42% |
| CC[C@H](C)[C@H](NC(=O)[C@H](Cc1cnc[nH]1)NC(=O)[C@H](CCCCN)NC(=O)[C@H](CC(C)C)NC(=O)[C@H](CCCCN)NC(=O)[C@H](Cc1ccc(O)cc1)NC(=O)[C@H](CCC(N)=O)NC(=O)[C@H](CCC(=O)O)NC(=O)[C@H](Cc1c[nH]c2ccccc12)NC(=O)[C@H](CCCCN)NC(=O)[C@H](CC(=O)O)NC(=O)[C@H](CC(C)C)NC(=O)[C@H](CCC(=O)O)NC(=O)CNC(C)=O)C(=O)N[C@H](C(=O)NCC(=O)N[C@@H](CSCC(=O)N[C@@H](CCCNC(=N)N)C(=O)N[C@@H](CCCNC(=N)N)C(=O)N[C@@H](CCCNC(=N)N)C(=O)N[C@@H](CCCNC(=N)N)C(=O)N[C@@H](CCCNC(=N)N)C(=O)N[C@@H](CCCNC(=N)N)C(=O)N[C@@H](CCCNC(=N)N)C(=O)N[C@@H](CCCNC(=N)N)C(N)=O)C(N)=O)C(C)C | 36 µM |  |  |  | inhibition [6]: inactive |
| CC[C@H](C)[C@H](NC(=O)[C@H](CCCCN)NC(=O)[C@H](CC(=O)O)NC(=O)[C@H](CC(C)C)NC(=O)[C@H](C)NC(=O)[C@H](CCC(=O)O)NC(=O)[C@H](CCCCN)NC(=O)[C@@H](NC(=O)[C@H](CC(=O)O)NC(=O)[C@H](CCCCN)NC(=O)[C@@H](NC(=O)[C@H](CC(=O)O)NC(=O)[C@@H](NC(=O)[C@H](CCCNC(=N)N)NC(C)=O)[C@@H](C)CC)C(C)C)[C@@H](C)O)C(=O)N[C@@H](CCC(=O)O)C(=O)NCC(=O)N[C@@H](CSCC(N)=O)C(N)=O | 17 µM |  |  |  | inhibition [7]: inactive |
| CC[C@H](C)[C@H](NC(=O)[C@H](Cc1cnc[nH]1)NC(=O)[C@H](CCCCN)NC(=O)[C@H](CC(C)C)NC(=O)[C@H](CCCCN)NC(=O)[C@H](Cc1ccc(O)cc1)NC(=O)[C@H](CCC(N)=O)NC(=O)[C@H](CCCCN)NC(=O)[C@H](CCCCN)NC(=O)CNC(=O)CNC(=O)[C@@H]1CCCN1C(=O)[C@H](CCCNC(=N)N)NC(=O)[C@H](CC(C)C)NC(C)=O)C(=O)N[C@H](C(=O)NCC(=O)N[C@@H](CSCC(=O)N[C@@H](CCCNC(=N)N)C(=O)N[C@@H](CCCNC(=N)N)C(=O)N[C@@H](CCCNC(=N)N)C(=O)N[C@@H](CCCNC(=N)N)C(=O)N[C@@H](CCCNC(=N)N)C(=O)N[C@@H](CCCNC(=N)N)C(=O)N[C@@H](CCCNC(=N)N)C(=O)N[C@@H](CCCNC(=N)N)C(N)=O)C(N)=O)C(C)C | 36 µM |  |  |  | inhibition [6]: inactive |
| CC[C@H](C)[C@H](NC(=O)[C@@H](NC(=O)[C@H](CC(N)=O)NC(=O)[C@H](Cc1ccc(O)cc1)NC(=O)[C@H](CC(C)C)NC(=O)[C@H](CO)NC(=O)[C@H](CCCNC(=N)N)NC(=O)[C@H](CC(C)C)NC(=O)[C@H](CCC(=O)O)NC(=O)[C@H](CCC(=O)O)NC(=O)[C@H](CO)NC(=O)CNC(C)=O)[C@@H](C)O)C(=O)N[C@@H](C)C(=O)N[C@H](C(=O)N[C@@H](CC(C)C)C(=O)NCC(=O)N[C@@H](CSCC(=O)N[C@@H](CCCNC(=N)N)C(=O)N[C@@H](CCCNC(=N)N)C(=O)N[C@@H](CCCNC(=N)N)C(=O)N[C@@H](CCCNC(=N)N)C(=O)N[C@@H](CCCNC(=N)N)C(=O)N[C@@H](CCCNC(=N)N)C(=O)N[C@@H](CCCNC(=N)N)C(=O)N[C@@H](CCCNC(=N)N)C(N)=O)C(N)=O)C(C)C | 9 µM | 2.3 µM | 7.8 µM | soluble | EC50 [8]: 5.8 µM |
| CC[C@H](C)[C@H](NC(=O)[C@H](Cc1cnc[nH]1)NC(=O)[C@H](CCCCN)NC(=O)[C@H](CC(C)C)NC(C)=O)C(=O)N[C@H](C(=O)N[C@@H](Cc1c[nH]c2ccccc12)C(=O)N[C@@H](C)C(=O)N[C@@H](CO)C(=O)N[C@@H](CCCNC(=N)N)C(=O)N[C@@H](CCC(=O)O)C(=O)N[C@@H](CC(C)C)C(=O)N[C@@H](CCC(=O)O)C(=O)N[C@@H](CCCNC(=N)N)C(=O)N[C@@H](Cc1ccccc1)C(=O)N[C@@H](C)C(=O)NCC(=O)N[C@@H](CSCC(N)=O)C(N)=O)C(C)C (Ac-LKHIVWASRELERFAGC(Cam)-NH2) | 14 µM |  |  |  | inhibition [7]: inactive |
| CC(=O)N[C@@H](CC(=O)O)C(=O)N[C@H](C(=O)NCC(=O)N[C@@H](CC(N)=O)C(=O)N[C@@H](CC(N)=O)C(=O)N[C@@H](CO)C(=O)N[C@@H](CCC(N)=O)C(=O)N[C@H](C(=O)N[C@@H](CO)C(=O)N[C@@H](CCC(N)=O)C(=O)N[C@@H](CC(N)=O)C(=O)N[C@@H](Cc1ccc(O)cc1)C(=O)NCC(=O)N[C@@H](CS)C(N)=O)C(C)C)[C@@H](C)O |  |  |  | Insoluble |  |
| CC[C@H](C)[C@H](NC(=O)[C@H](CCCNC(=N)N)NC(=O)[C@H](CCC(N)=O)NC(=O)[C@H](Cc1cnc[nH]1)NC(=O)[C@@H](NC(=O)[C@H](CO)NC(=O)[C@H](Cc1ccc(O)cc1)NC(=O)[C@H](CC(C)C)NC(=O)[C@@H](NC(=O)[C@H](C)NC(=O)[C@@H](NC(=O)[C@@H](NC(C)=O)[C@@H](C)O)[C@@H](C)CC)C(C)C)C(C)C)C(=O)N[C@@H](CC(=O)O)C(=O)N[C@H](C(=O)N[C@@H](CCCCN)C(=O)NCC(=O)N[C@@H](CSCC(=O)N[C@@H](CCCNC(=N)N)C(=O)N[C@@H](CCCNC(=N)N)C(=O)N[C@@H](CCCNC(=N)N)C(=O)N[C@@H](CCCNC(=N)N)C(=O)N[C@@H](CCCNC(=N)N)C(=O)N[C@@H](CCCNC(=N)N)C(=O)N[C@@H](CCCNC(=N)N)C(=O)N[C@@H](CCCNC(=N)N)C(N)=O)C(N)=O)C(C)C | 5.7 µM | 2.1 µM | 0.58 µM | soluble | EC50 [8]: 0.43 µM |
